One may read the Ki as the equilibrium dissociation constant of an inhibitor or competing ligand from its target.

These results are taken from ChEMBL document CHEMBL2440075, “In vitro structure-activity relationships of aplysinopsin analogs and their in vivo evaluation in the chick anxiety-depression model” (Bioorg Med Chem, 2013).

For experiment [1], the target named is 5-hydroxytryptamine receptor 6 (Homo sapiens, UniProt P50406). As to the kind of experiment: Displacement of [3H]LSD from human recombinant 5HT6 receptor stably expressed in HEK cells. In kind it is cell-based, HEK293. (In a radioligand displacement assay an active substance lowers the binding of a labelled ligand.)
Chain of 5-hydroxytryptamine receptor 6 (P50406 whole entry): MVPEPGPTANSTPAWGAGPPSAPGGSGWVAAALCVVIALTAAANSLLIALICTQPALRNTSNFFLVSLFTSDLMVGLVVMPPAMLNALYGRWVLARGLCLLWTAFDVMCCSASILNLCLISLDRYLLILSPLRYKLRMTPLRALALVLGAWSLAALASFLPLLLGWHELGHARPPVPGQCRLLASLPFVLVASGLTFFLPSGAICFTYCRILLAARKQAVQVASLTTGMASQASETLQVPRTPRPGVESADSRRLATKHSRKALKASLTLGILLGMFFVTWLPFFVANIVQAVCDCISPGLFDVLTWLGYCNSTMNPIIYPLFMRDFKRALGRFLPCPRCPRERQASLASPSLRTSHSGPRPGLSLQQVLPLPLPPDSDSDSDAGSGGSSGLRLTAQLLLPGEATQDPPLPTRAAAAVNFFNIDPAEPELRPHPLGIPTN
Experiment [2] has as its target 5-hydroxytryptamine receptor 5A (Homo sapiens, UniProt P47898). Nature of the experiment: Displacement of [3H]LSD from human recombinant 5HT5A receptor expressed in Flp-In CHO cells. Type of experiment: cell-based.
The target of experiment [3] is 5-hydroxytryptamine receptor 2A (Rattus norvegicus, UniProt P14842). Nature of the experiment: Displacement of [3H]ketanserin from rat 5HT2A receptor stably expressed in 3T3 cells. In kind it is cell-based.
Chain of 5-hydroxytryptamine receptor 2A (P14842 whole entry): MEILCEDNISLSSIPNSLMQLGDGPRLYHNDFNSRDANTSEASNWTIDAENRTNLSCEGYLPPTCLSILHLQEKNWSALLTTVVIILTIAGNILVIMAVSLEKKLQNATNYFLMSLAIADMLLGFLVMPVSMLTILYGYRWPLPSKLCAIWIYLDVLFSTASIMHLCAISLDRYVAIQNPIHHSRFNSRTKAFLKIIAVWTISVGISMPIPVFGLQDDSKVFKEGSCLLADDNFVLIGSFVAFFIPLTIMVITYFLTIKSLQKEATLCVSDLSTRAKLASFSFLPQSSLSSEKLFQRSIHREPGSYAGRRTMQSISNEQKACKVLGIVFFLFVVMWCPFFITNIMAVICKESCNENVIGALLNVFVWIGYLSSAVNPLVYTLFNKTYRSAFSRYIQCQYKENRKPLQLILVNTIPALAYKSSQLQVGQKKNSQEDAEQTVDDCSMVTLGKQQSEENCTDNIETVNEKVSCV
The subject of experiment [4] is Gallus gallus. Nature of the experiment: Effect on social seperation in chick anxiety-depression model assessed as attenuation of decline in distress vocalizations during depression-like phase at 30 nM/kg, ip 15 mins prior to behavioral testing measured after 45 to 60 mins. In kind it is functional, organism-based.
Experiment [5] deals with T1, 5-hydroxytryptamine receptor 2C (Homo sapiens, UniProt P28335).
T1 sequence (P28335 whole entry): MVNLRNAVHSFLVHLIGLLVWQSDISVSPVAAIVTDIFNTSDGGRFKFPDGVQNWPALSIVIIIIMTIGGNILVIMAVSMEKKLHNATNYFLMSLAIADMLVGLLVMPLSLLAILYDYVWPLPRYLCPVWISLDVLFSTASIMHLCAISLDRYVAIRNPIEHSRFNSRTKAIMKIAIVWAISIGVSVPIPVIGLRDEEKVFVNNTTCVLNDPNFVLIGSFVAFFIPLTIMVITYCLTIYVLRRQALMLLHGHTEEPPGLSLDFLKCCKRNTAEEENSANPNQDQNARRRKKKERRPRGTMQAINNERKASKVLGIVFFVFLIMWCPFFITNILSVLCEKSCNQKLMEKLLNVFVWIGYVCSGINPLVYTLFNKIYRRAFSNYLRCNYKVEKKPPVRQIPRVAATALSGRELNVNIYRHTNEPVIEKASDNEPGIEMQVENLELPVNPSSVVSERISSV
As to the kind of experiment: Displacement of [3H]mesulergine from human recombinant 5HT2C receptor expressed in Flp-IN HEK cells. Type of experiment: cell-based, HEK293.

Experiment [6] deals with 5-hydroxytryptamine receptor 7 (Homo sapiens, UniProt P34969). Nature of the experiment: Displacement of [3H]LSD from human recombinant 5HT7 receptor stably expressed in HEK cells. Type of experiment: cell-based, HEK293.
Chain of 5-hydroxytryptamine receptor 7 (P34969 whole entry): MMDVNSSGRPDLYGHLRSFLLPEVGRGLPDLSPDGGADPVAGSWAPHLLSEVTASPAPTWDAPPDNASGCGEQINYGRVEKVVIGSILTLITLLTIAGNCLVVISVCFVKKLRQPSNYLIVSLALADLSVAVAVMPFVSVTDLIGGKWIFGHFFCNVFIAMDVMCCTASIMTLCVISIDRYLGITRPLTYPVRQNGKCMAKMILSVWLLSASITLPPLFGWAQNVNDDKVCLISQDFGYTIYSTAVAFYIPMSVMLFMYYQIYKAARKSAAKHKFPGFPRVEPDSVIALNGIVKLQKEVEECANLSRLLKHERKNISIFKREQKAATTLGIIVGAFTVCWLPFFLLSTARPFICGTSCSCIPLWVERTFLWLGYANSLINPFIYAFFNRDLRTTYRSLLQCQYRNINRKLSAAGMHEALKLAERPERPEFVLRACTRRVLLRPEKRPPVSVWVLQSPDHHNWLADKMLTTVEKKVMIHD
For experiment [7], the system named is Gallus gallus. As to the kind of experiment: Effect on isolation-stressor in chick anxiety-depression model assessed as reduction in distress vocalizations during anxiety-like phase at 10 to 100 nM/kg, ip 15 mins prior to behavioral testing measured for 1 to 5 mins. In kind it is functional, organism-based.
Experiment [8] has as its target 5-hydroxytryptamine receptor 2B (Homo sapiens, UniProt P41595). Nature of the experiment: Displacement of [3H]LSD from human recombinant 5HT2B receptor stably expressed in HEK cells. Type of experiment: cell-based, HEK293.
Experiment [9] deals with Gallus gallus. As to the kind of experiment: Effect on social seperation in chick anxiety-depression model assessed as attenuation of decline in distress vocalizations during depression-like phase at 10 to 100 nM/kg, ip 15 mins prior to behavioral testing measured after 30 to 45 mins. Type of experiment: functional, organism-based.
For experiment [10], the system named is Gallus gallus. Nature of the experiment: Effect on isolation-stressor in chick anxiety-depression model assessed as attenuation of decline in distress vocalizations during depression-like phase at 30 nM/kg, ip 15 mins prior to behavioral testing measured after 5 to 60 mins. In kind it is functional, organism-based.
For experiment [11], the system named is Gallus gallus. As to the kind of experiment: Effect on social seperation in chick anxiety-depression model assessed as reduction in distress vocalizations during anxiety-like phase at 10 to 100 nM/kg, ip 15 mins prior to behavioral testing measured for 1 to 5 mins. Type of experiment: functional, organism-based.
The target in experiment [12] is T2, 5-hydroxytryptamine receptor 1A (Homo sapiens, UniProt P08908).
T2 sequence (P08908 whole entry): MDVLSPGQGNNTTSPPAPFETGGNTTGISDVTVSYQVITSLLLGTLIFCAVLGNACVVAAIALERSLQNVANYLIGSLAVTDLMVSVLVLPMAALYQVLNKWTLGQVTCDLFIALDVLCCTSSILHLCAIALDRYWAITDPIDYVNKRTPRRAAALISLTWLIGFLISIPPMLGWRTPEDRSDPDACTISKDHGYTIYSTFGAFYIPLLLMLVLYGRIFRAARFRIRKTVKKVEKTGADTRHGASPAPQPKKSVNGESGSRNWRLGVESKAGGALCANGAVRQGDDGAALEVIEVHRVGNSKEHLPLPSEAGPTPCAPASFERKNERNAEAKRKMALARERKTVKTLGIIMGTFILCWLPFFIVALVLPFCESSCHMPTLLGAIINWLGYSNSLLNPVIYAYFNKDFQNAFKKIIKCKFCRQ
As to the kind of experiment: Displacement of [3H]way100635 from human recombinant 5HT1A receptor stably expressed in CHO cells. Type of experiment: cell-based.

Experiment [13] deals with T3, 5-hydroxytryptamine receptor 3A (Homo sapiens, UniProt P46098).
T3 sequence (P46098 whole entry): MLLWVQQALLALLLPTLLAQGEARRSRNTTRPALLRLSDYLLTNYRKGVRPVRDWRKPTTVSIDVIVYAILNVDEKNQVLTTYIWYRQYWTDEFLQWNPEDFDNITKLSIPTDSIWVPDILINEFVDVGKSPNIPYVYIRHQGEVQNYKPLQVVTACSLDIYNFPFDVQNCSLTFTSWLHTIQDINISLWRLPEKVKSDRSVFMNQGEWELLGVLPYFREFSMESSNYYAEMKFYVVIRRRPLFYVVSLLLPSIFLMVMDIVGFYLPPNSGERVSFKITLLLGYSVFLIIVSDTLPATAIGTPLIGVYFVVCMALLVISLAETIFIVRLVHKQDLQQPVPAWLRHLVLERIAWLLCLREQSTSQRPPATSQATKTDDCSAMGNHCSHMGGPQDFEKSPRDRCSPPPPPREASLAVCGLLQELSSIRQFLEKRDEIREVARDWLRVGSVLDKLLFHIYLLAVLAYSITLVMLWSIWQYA
As to the kind of experiment: Displacement of [3H]GR65630 from human recombinant 5HT3 receptor expressed in HEKT cells. Type of experiment: cell-based.

For experiment [14], the target named is 5-hydroxytryptamine receptor 1D (Homo sapiens, UniProt P28221). Nature of the experiment: Displacement of [3H]5-CT from human recombinant 5HT1D receptor expressed in HEKT cells. Type of experiment: cell-based.
Chain of 5-hydroxytryptamine receptor 1D (P28221 whole entry): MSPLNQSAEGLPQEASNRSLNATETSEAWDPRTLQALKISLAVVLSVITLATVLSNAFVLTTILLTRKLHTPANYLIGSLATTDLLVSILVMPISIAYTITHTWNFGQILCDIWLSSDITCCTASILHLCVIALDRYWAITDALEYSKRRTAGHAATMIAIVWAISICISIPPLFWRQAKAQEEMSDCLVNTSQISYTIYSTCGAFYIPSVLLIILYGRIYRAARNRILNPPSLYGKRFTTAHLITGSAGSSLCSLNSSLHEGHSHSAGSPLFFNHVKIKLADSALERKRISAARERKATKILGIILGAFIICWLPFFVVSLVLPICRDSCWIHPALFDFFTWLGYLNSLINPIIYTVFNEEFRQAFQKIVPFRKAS
For experiment [15], the target named is 5-hydroxytryptamine receptor 1E (Homo sapiens, UniProt P28566). As to the kind of experiment: Displacement of [3H]5-HT from human recombinant 5HT1E receptor stably expressed in HEK cells. In kind it is cell-based, HEK293.
Chain of 5-hydroxytryptamine receptor 1E (P28566 whole entry): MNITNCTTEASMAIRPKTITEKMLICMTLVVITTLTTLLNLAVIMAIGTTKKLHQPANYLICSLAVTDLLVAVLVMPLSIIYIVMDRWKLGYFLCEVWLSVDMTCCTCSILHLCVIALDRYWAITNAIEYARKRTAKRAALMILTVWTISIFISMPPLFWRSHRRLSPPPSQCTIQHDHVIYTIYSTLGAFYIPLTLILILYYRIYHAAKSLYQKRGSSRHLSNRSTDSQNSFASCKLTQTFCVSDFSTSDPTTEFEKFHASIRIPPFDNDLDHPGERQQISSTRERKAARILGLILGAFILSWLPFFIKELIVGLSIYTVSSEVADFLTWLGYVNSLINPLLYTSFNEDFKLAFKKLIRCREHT
The target of experiment [16] is 5-hydroxytryptamine receptor 1B (Homo sapiens, UniProt P28222). Nature of the experiment: Displacement of [3H]5-CT from human recombinant 5HT1B receptor stably expressed in HEK cells. Type of experiment: cell-based, HEK293.
Chain of 5-hydroxytryptamine receptor 1B (P28222 whole entry): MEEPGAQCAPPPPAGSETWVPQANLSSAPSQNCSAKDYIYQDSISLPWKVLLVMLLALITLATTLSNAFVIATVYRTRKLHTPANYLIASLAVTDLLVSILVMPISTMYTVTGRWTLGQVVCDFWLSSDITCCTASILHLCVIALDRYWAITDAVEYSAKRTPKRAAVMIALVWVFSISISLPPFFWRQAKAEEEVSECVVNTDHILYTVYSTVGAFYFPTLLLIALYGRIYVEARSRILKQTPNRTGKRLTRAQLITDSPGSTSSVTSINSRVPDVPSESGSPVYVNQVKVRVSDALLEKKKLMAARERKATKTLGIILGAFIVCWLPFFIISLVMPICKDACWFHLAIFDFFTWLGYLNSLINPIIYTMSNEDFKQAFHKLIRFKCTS
In experiment [17] the test system is Gallus gallus. Nature of the experiment: Effect on social seperation in chick anxiety-depression model assessed as attenuation of decline in distress vocalizations during depression-like phase at 5 mg/kg, ip 15 mins prior to behavioral testing measured after 30 to 45 mins. Type of experiment: functional, organism-based. More on the design: dose 5 mg/kg.
Experiment [18] deals with Gallus gallus. Nature of the experiment: Effect on social seperation in chick anxiety-depression model assessed as attenuation of decline in distress vocalizations during depression-like phase at 5 mg/kg, ip 15 mins prior to behavioral testing measured after 45 to 60 mins. In kind it is functional, organism-based. Details: dose 5 mg/kg.
Experiment [19] relates to Gallus gallus. Nature of the experiment: Effect on isolation-stressor in chick anxiety-depression model assessed as attenuation of decline in distress vocalizations during depression-like phase at 5 mg/kg, ip 15 mins prior to behavioral testing measured after 5 to 60 mins. Type of experiment: functional, organism-based. Details: dose 5 mg/kg.

Molecules are shown by their SMILES. The source made the active and inactive calls. No cut-off for these calls is given here. A value given as a limit tells only on which side of the number the result lay.

Chain of 5-hydroxytryptamine receptor 2B (P41595 whole entry): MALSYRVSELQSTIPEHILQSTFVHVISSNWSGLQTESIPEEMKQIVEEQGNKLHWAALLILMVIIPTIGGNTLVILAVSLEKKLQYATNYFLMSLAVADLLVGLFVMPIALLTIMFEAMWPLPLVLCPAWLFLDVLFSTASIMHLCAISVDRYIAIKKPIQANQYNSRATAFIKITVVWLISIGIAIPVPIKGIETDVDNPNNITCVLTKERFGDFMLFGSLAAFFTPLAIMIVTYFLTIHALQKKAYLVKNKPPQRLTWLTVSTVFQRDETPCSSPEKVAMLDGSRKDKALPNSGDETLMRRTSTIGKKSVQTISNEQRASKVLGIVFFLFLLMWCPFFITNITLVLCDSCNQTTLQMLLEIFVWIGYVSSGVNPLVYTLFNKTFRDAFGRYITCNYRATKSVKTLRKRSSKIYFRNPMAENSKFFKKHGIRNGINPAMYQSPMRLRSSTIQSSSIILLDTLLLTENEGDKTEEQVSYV
Chain of 5-hydroxytryptamine receptor 5A (P47898 whole entry): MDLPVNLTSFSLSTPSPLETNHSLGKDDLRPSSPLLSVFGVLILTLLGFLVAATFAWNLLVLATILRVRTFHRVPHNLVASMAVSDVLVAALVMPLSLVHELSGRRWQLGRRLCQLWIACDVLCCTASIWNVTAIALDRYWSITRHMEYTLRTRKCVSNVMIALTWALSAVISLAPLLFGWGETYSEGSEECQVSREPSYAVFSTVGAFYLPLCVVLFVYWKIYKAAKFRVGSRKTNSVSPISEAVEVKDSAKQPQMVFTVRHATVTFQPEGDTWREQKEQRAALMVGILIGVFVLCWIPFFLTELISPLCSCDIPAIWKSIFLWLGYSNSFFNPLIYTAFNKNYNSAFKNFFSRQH

As to `N=C1NC(=O)/C(=C\c2c[nH]c3ccc(Br)cc23)N1`, the Ki in experiment [1] is 0.742 µM; in experiment [2] it was 0.089 µM; in [3], 0.058 µM; in experiment [5], 0.035 µM; in experiment [6], 0.512 µM; in [8] it was 0.051 µM. Besides, the outcome in the experiment with Gallus gallus [4], with Gallus gallus [10] and in the experiment with Gallus gallus [11] was Active. In addition, the result in the experiment on Gallus gallus [7] and in the experiment on Gallus gallus [9] was inactive.
As to `CN1C(=N)N(C)/C(=C/c2c[nH]c3ccccc23)C1=O` [APLYSINOPSIN], the Ki was more than 10 µM in experiment [12]; 8.77 µM in experiment [1]; 10 µM in experiment [5]; 3.03 µM in experiment [13]; 4.45 µM in experiment [8].
In the case of `CN1C(=N)N(C)/C(=C/c2c[nH]c3cccc(Br)c23)C1=O`, the Ki was 0.315 µM in [12]; 6.83 µM in experiment [14]; 7.83 µM in experiment [2]; more than 10 µM in experiment [3]; more than 10 µM in experiment [15]; 2.76 µM in experiment [5]. The Ki in experiment [16] was more than 10 µM; in experiment [13], 0.656 µM; in experiment [8], 0.589 µM.
For `CN1C(=N)NC(=O)/C1=C\c1c[nH]c2cccc(Br)c12`, the Ki is 1.41 µM in [3], 2.01 µM in [5], 0.799 µM in experiment [6] and 0.784 µM in experiment [8].
Regarding `C/N=C1\N(C)C(=O)/C(=C\c2c[nH]c3cccc(Br)c23)N1C`, the Ki in [12] was 6.93 µM; in experiment [1], 7.52 µM; in [14] it was 2.55 µM; in [2] it was 5.08 µM; in experiment [3] it was more than 10 µM; in [15], more than 10 µM. The results for the inhibition constant (Ki) in experiment [5], in [13] and in experiment [8] were 1.86 µM, 0.591 µM and 0.897 µM, respectively.
As for `CN(C)CCCN1c2ccccc2CCc2ccccc21`, the result with Gallus gallus [17], with Gallus gallus [18] and in the experiment with Gallus gallus [19] was Active.
With `C/N=C1\NC(=O)/C(=C\c2c[nH]c3ccc(Br)cc23)N1C`, the inhibitory constant (Ki) in experiment [12] is 2.62 µM; in experiment [5] it was 1.08 µM; in experiment [6], 4.11 µM; in [13] it was 6.18 µM; in experiment [8] it was 0.883 µM.
With `CN1C(=N)N(C)/C(=C/c2c[nH]c3c(Br)cccc23)C1=O`, the Ki in experiment [12] was 1.81 µM; in experiment [14], more than 10 µM; in experiment [15], more than 10 µM; in experiment [5], 3.01 µM; in experiment [16], more than 10 µM; in experiment [13], 1.22 µM. Also, the Ki in experiment [8] amounted to 0.349 µM.
As to `C/N=C1\NC(=O)/C(=C\c2c[nH]c3cccc(Br)c23)N1C`, the inhibition constant (Ki) in experiment [12] was 4.61 µM; in experiment [1], 1.41 µM; in [14] it was more than 10 µM; in [2], 1.45 µM; in [3] it was 0.662 µM; in experiment [5] it was 0.32 µM. The inhibitory constant (Ki) in experiment [16] is more than 10 µM; in [13], 5.92 µM; in experiment [8] it was 0.099 µM.
With `C/N=C1/N/C(=C/c2c[nH]c3ccc(Br)cc23)C(=O)N1C`, the inhibition constant (Ki) was more than 10 µM in experiment [3], 1.34 µM in experiment [5], 3.35 µM in experiment [6] and 0.52 µM in [8].
For `CN1C(=N)N/C(=C/c2c[nH]c3ccc(Br)cc23)C1=O`, the inhibitory constant (Ki) was 7.36 µM in experiment [12]; 2.33 µM in experiment [2]; 0.279 µM in experiment [3]; 1.27 µM in experiment [5]; 1.22 µM in experiment [6]; 0.094 µM in [8].
On to `C/N=C1\N(C)C(=O)/C(=C\c2c[nH]c3ccccc23)N1C` [METHYLAPLYSINOPSIN], for which the inhibitory constant (Ki) was 1.72 µM in [1]; more than 10 µM in [3]; more than 10 µM in experiment [15]; 10 µM in [5]; 1.51 µM in experiment [13]; 4.55 µM in [8].
As to `CN1C(=N)N(C)/C(=C/c2c[nH]c3ccc(Br)cc23)C1=O`, the inhibitory constant (Ki) was 0.527 µM in [12]; 6.72 µM in experiment [2]; 1.27 µM in experiment [5]; 1 µM in experiment [13]; 1.25 µM in experiment [8].
As for `C/N=C1/N/C(=C/c2c[nH]c3cccc(Br)c23)C(=O)N1C`, the Ki in experiment [14] is more than 10 µM; in experiment [5] it was 2.34 µM; in experiment [16] it was more than 10 µM; in experiment [8], 0.774 µM.
Take `C/N=C1\N(C)C(=O)/C(=C\c2c[nH]c3ccc(Br)cc23)N1C`: the Ki in [12] turned out to be 2.51 µM; in [2], 9.12 µM; in experiment [5] it was 2.43 µM; in experiment [6], 5.37 µM; in experiment [13], 2.62 µM; in experiment [8], 1.62 µM.
For the compound `C/N=C1\N(C)C(=O)/C(=C\c2c[nH]c3c(Br)cccc23)N1C`, the Ki is more than 10 µM in experiment [12]; 7.3 µM in experiment [1]; 8.87 µM in experiment [14]; 6.91 µM in experiment [2]; 6.47 µM in experiment [5]; more than 10 µM in experiment [16]. Further, the inhibitory constant (Ki) in experiment [8] was determined as 0.965 µM.
